Laboratory results as given in PubChem BioAssay AID1963840 (Molecular Pharmacology Branch, DTP, NCI, 2024).

System: 695427-040-R-J1-PDC complex spheroid viability
Assay: Anticancer human tumor 695427-040-R-J1-PDC patient-derived colon adenocarcinoma cell line growth inhibition [POLQ]
Details: for IC50: curve of first compound; for viability, T/C: stronger effect = lower value
Procedure: Multicellular complex tumor spheroid response to Polymerase (POL) inhibitors (novobiocin, ART-558, RP6685) in combination with a variety of drugs and investigational agents in selected tumor cell lines
The POL inhibitors (novobiocin, ART-558, and RP6685) were evaluated both individually and in combination with standard of care and investigational anticancer small molecules within a complex spheroid model of solid tumors. . Complex spheroids include a stromal component modeled by human endothelial cells (HUVEC) and fibroblasts modeled by human mesenchymal stem cells (MSCs). The concentration ranges selected for each drug and investigational agent were based upon clinically achievable concentrations if the clinical Cmax of the agent was known.
Compounds. The drugs and investigational agents: novobiocin (NSC847541), ART-558 (NSC835418), RP-6685 (NSC848927), peposertib (NSC802822), ceralasertib (NSC780249), elimusertib (NSC800525), camonsertib (NSC841442), AZD-1390 (NSC803789), olaparib (NSC753686), talazoparib (NSC767125), rucaparib (NSC756644), sotorasib (NSC818433), MRTX-1133 (NSC836407), SN-38 (NSC673596), topotecan (NSC609699), epotoside (NSC141540), doxorubicin (NSC123127), gemcitabine (NSC613327), 5-fluorouracil (NSC19893), paclitaxel (NSC125973), vemurafenib (NSC761431), MSA-2 (NSC828583), SN-011 (NSC837082), adavosertib (NSC754352), prexasertib (NSC758257), carboplatin (NSC241240) and oxaliplatin (NSC266046), were obtained from the National Cancer Institute (NCI) Developmental Therapeutics Program Chemical Repository (21). The FDA-approved anticancer drug set is available from the Developmental Therapeutics Program at https://dtp.cancer.gov/organization/dscb/obtaining/. […] The stock solutions were prepared in dimethyl sulfoxide (DMSO, Sigma-Aldrich, St. Louis, MO, cat. D2650), except for the platinum compounds which were prepared in saline (Quality Biological, Gaithersburg, MD, cat. 114-055-101), at 800-fold the tested concentration and stored at -70 degrees C prior to their use. All drugs and investigational agents were tested over a range starting from a high concentration at or near the clinical Cmax and decreasing in half-log increments. If the clinical Cmax for an agent had not been determined, the highest concentration tested was 10 microM, except for SN-38, which was tested at a high concentration of 1 microM.
Cell Culture. All cells were maintained in an incubator at 37 degrees C and 5% CO2 with 95% humidity. The PDC lines were cultured according to standard operating procedures established by the NCI PDMR (https://pdmr.cancer.gov). Table 3 of the manuscript, lists the cell lines along with the number of the three cell types plated to form the mct-spheroids and media for tumor cell growth. After thawing, all PDC lines, except 997537-175-T-J1-PDC and 415267-285-R-J2-PDC, were cultured in Matrigel-coated flasks prepared with a working solution of 1X Ham's F-12 nutrient mix, without supplementation (Thermo Fisher Scientific, cat. 11765054), 100 U/mL penicillin-streptomycin (Thermo Fisher Scientific, cat. 15140122), and 2.5% Matrigel (Corning Inc., Corning, NY, cat. 354248) for the first three passages. The two PDC lines 997537-175-T-J1-PDC and 415267-285-R-J2-PDC were cultured on uncoated flasks. The 857933-349-R-J2-PDC line was cultured in 6C/Colon 1B media containing advanced DMEM/F-12 (Thermo Fisher Scientific, cat. 12634028), 10 mM HEPES (Thermo Fisher Scientific, cat. 15630080), 1X GlutaMAX supplement (Thermo Fisher Scientific, cat. 35050061), 0.1 mg/mL primocin (InvivoGen, San Diego, CA, cat. ant-pm-2), 10% defined fetal bovine serum, heat inactivated (HyClone Laboratories Inc., Logan, UT, cat. SH30070.03HI), 50% L-WRN conditioned media (ATCC, cat. CRL-3276), 1.25 mM N-Acetyl-L-cysteine (Sigma-Aldrich, cat. A9165), 10 mM nicotinamide (Sigma-Aldrich, cat. N0636), 1X B-27 supplement (Thermo Fisher Scientific, cat. 17504044), 1X N-2 supplement (Thermo Fisher Scientific, cat. […]

[1] = second compound 0.0316 µM, first compound 0.0316 µM
[2] = second compound 0.0316 µM, first compound 0.1 µM
[3] = second compound 0.0316 µM, first compound 0.316 µM
[4] = second compound 0.0316 µM, first compound 1 µM
[5] = second compound 0.0316 µM, first compound 3.16 µM
[6] = second compound 0.0316 µM, first compound 10 µM
[7] = second compound 0.1 µM, first compound 0.0316 µM
[8] = second compound 0.1 µM, first compound 0.1 µM
[9] = second compound 0.1 µM, first compound 0.316 µM
[10] = second compound 0.1 µM, first compound 1 µM
[11] = second compound 0.1 µM, first compound 3.16 µM
[12] = second compound 0.1 µM, first compound 10 µM
[13] = second compound 0.316 µM, first compound 0.0316 µM
[14] = second compound 0.316 µM, first compound 0.1 µM
[15] = second compound 0.316 µM, first compound 0.316 µM
[16] = second compound 0.316 µM, first compound 1 µM
[17] = second compound 0.316 µM, first compound 3.16 µM
[18] = second compound 0.316 µM, first compound 10 µM
[19] = second compound 1 µM, first compound 0.0316 µM
[20] = second compound 1 µM, first compound 0.1 µM
[21] = second compound 1 µM, first compound 0.316 µM
[22] = second compound 1 µM, first compound 1 µM
[23] = second compound 1 µM, first compound 3.16 µM
[24] = second compound 1 µM, first compound 10 µM
[25] = second compound 3.16 µM, first compound 0.0316 µM
[26] = second compound 3.16 µM, first compound 0.1 µM
[27] = second compound 3.16 µM, first compound 0.316 µM
[28] = second compound 3.16 µM, first compound 1 µM
[29] = second compound 3.16 µM, first compound 3.16 µM
[30] = second compound 3.16 µM, first compound 10 µM
[31] = second compound 10 µM, first compound 0.0316 µM
[32] = second compound 10 µM, first compound 0.1 µM
[33] = second compound 10 µM, first compound 0.316 µM
[34] = second compound 10 µM, first compound 1 µM
[35] = second compound 10 µM, first compound 3.16 µM
[36] = second compound 10 µM, first compound 10 µM
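Also: spheroids exposed to compounds for seven days.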
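For viability, T/C in this document: 100% = DMSO vehicle control viability.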

Question: What does the source list for `CCc1cc2c(N3CCc4c(cc(Cn5ccnc5)cc4-c4cn(C)nc4C(F)(F)F)C3=O)ccnc2c(OC)n1` + Nc1ccc(C#CCN(C(=O)Cc2ncc(C(F)(F)F)cc2C(F)(F)F)c2ccc(F)cc2)nn1?
Answer: IC50 (second compound 0.0316 µM): > 10 µM; IC50 (second compound 0.1 µM): > 10 µM; IC50 (second compound 0.316 µM): > 10 µM; IC50 (second compound 1 µM): > 10 µM; IC50 (second compound 3.16 µM): > 10 µM; IC50 (second compound 10 µM): > 10 µM; viability, T/C [1]: 102%; viability, T/C [2]: 106%; viability, T/C [3]: 94.6%; viability, T/C [4]: 95.8%; viability, T/C [5]: 105%; viability, T/C [6]: 96%; viability, T/C [7]: 115%; viability, T/C [8]: 112%; viability, T/C [9]: 101%; viability, T/C [10]: 100%; viability, T/C [11]: 105%; viability, T/C [12]: 102%; viability, T/C [13]: 118%; viability, T/C [14]: 115%; viability, T/C [15]: 93%; viability, T/C [16]: 104%; viability, T/C [17]: 103%; viability, T/C [18]: 87.6%; viability, T/C [19]: 116%; viability, T/C [20]: 95.1%; viability, T/C [21]: 102%; viability, T/C [22]: 104%; viability, T/C [23]: 114%; viability, T/C [24]: 84.5%; viability, T/C [25]: 116%; viability, T/C [26]: 104%; viability, T/C [27]: 93.6%; viability, T/C [28]: 104%; viability, T/C [29]: 103%; viability, T/C [30]: 90%; viability, T/C [31]: 101%; viability, T/C [32]: 93.2%; viability, T/C [33]: 101%; viability, T/C [34]: 110%; viability, T/C [35]: 97.7%; viability, T/C [36]: 96.7%

Question: `CC1COCCN1c1cc(C2(O)CC3CCC(C2)O3)c2cnn(-c3ccn[nH]3)c2n1` (centres undefined) + Cc1cccc(N(C)C(=O)C2C(O)CCN2c2nc(C)cc(C(F)(F)F)c2C#N)c1 was tested. Which IC50 (second compound 0.0316 µM) did it give?
Answer: 6.2 µM

Question: And the IC50 (second compound 0.1 µM)?
Answer: 7.33 µM

Question: What about the IC50 (second compound 0.316 µM) of the same compound?
Answer: 6.13 µM

Question: What about the IC50 (second compound 1 µM) of the same compound?
Answer: 6.54 µM

Question: What about the IC50 (second compound 3.16 µM) of the same compound?
Answer: 4.63 µM

Question: What about the IC50 (second compound 10 µM) of the same compound?
Answer: 2.82 µM

Question: And the viability, T/C [1]?
Answer: 102%

Question: And the viability, T/C [2]?
Answer: 84.5%

Question: And the viability, T/C [3]?
Answer: 76.9%

Question: What about the viability, T/C [4] of the same compound?
Answer: 66%

Question: What about the viability, T/C [5] of the same compound?
Answer: 52.5%

Question: What about the viability, T/C [6] of the same compound?
Answer: 47.3%

Question: What about the viability, T/C [7] of the same compound?
Answer: 102%

Question: And the viability, T/C [8]?
Answer: 91.3%

Question: And the viability, T/C [9]?
Answer: 85%

Question: What about the viability, T/C [10] of the same compound?
Answer: 70.8%

Question: And the viability, T/C [11]?
Answer: 55.9%

Question: And the viability, T/C [12]?
Answer: 47.9%

Question: And the viability, T/C [13]?
Answer: 109%

Question: And the viability, T/C [14]?
Answer: 88.1%

Question: And the viability, T/C [15]?
Answer: 80.6%

Question: And the viability, T/C [16]?
Answer: 67.1%

Question: And the viability, T/C [17]?
Answer: 58.4%

Question: What about the viability, T/C [18] of the same compound?
Answer: 44%

Question: What about the viability, T/C [19] of the same compound?
Answer: 100%

Question: What about the viability, T/C [20] of the same compound?
Answer: 91.4%

Question: What about the viability, T/C [21] of the same compound?
Answer: 82.6%

Question: What about the viability, T/C [22] of the same compound?
Answer: 66.6%

Question: And the viability, T/C [23]?
Answer: 56.8%

Question: And the viability, T/C [24]?
Answer: 46.3%

Question: What about the viability, T/C [25] of the same compound?
Answer: 96%

Question: And the viability, T/C [26]?
Answer: 92.6%

Question: And the viability, T/C [27]?
Answer: 73.8%

Question: And the viability, T/C [28]?
Answer: 65.6%

Question: What about the viability, T/C [29] of the same compound?
Answer: 53.8%

Question: And the viability, T/C [30]?
Answer: 43.5%

Question: And the viability, T/C [31]?
Answer: 93.3%

Question: And the viability, T/C [32]?
Answer: 88.6%

Question: What about the viability, T/C [33] of the same compound?
Answer: 70.3%

Question: And the viability, T/C [34]?
Answer: 56.1%

Question: What about the viability, T/C [35] of the same compound?
Answer: 51.5%

Question: What about the viability, T/C [36] of the same compound?
Answer: 45.6%
